This is an account of results in ChEMBL document CHEMBL1201862, “PubChem BioAssay data set” (2004).

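Briefly, cells in 96-well plates were exposed to five compound concentrations for 48 h, and endpoints were estimated by linear interpolation. GI50 is the concentration that inhibits growth by half.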 Active and inactive are the calls of the source. No stated cut-off is given here; in the data, active = GI50 up to about 1.1 µM and inactive = higher.

What all share (experiment): DTP human tumour cell line panel, 48 h
The subject of experiment [1] is COLO 205.
Experiment [2] concerns HL-60.
Experiment [3] relates to HOP-92.
For experiment [4], the system named is HT-29.
In experiment [5] the test system is KM12.
Experiment [6] has as its system LOX IMVI.
Experiment [7] concerns NCI-H460.
Experiment [8] relates to NCI-H522.
The test system of experiment [9] is OVCAR-3.
Experiment [10] concerns OVCAR-5.
Experiment [11] deals with RXF 393.
Experiment [12] concerns SF-268.
Experiment [13] has as its system SK-MEL-28.
Experiment [14] relates to SK-MEL-2.
For experiment [15], the system named is SK-OV-3.
Experiment [16] has as its system SN12C.
For experiment [17], the system named is SNB-75.
In experiment [18] the test system is SW-620.
For experiment [19], the system named is UACC-62.
Experiment [20] concerns SF-539.

What is called GI50 is the concentration that inhibits growth by half. On to `Clc1ccc2c(c1)CC1C[N+]3=C(CCCCC3)C1=C2` (stereo not given), for which the GI50 in [1] was 28.9 µM (inactive); in experiment [2] it was > 100 µM (inactive); in [3], 7.1 µM (inactive); in experiment [4], 37.8 µM (inactive); in experiment [5], 50.5 µM (inactive); in experiment [6], 43.3 µM (inactive). In addition, the GI50 was 33 µM (inactive) in [7]; 38.8 µM (inactive) in [8]; 59 µM (inactive) in experiment [9]; > 100 µM (inactive) in experiment [10]; > 100 µM (inactive) in experiment [11]; 50.8 µM (inactive) in [12]. For the same molecule, the GI50 in experiment [13] is > 100 µM (inactive); in experiment [14], 28.8 µM (inactive); in experiment [15] it was > 100 µM (inactive); in experiment [16], 80.4 µM (inactive); in experiment [17], 0.349 µM (active); in [18], > 100 µM (inactive). In addition, the GI50 in [19] is > 100 µM (inactive).

In the case of `CCOC(=O)NC(=O)c1cn(CCSCCOC(=O)NCCCCCCNC(=O)OCCSCCn2cc(C(=O)NC(=O)OCC)c(=O)[nH]c2=O)c(=O)[nH]c1=O`, the GI50 in [1], in experiment [2], in [3], in experiment [4], in [6] and in [7] was > 100 µM (inactive) in each case. The GI50 in experiment [9], in experiment [11], in experiment [20], in experiment [13], in experiment [15] and in experiment [16] was > 100 µM (inactive) each time. The GI50 in [17], in experiment [18] and in experiment [19] was > 100 µM (inactive) each time.

For `Cn1c2c(c3ccccc31)CCN(CCCCN1CCCCC1)C2=O`, the GI50 was > 100 µM (inactive) in experiment [1]; > 100 µM (inactive) in experiment [2]; > 100 µM (inactive) in experiment [3]; 61 µM (inactive) in experiment [4]; > 100 µM (inactive) in experiment [7]; > 100 µM (inactive) in [8]. The GI50 was > 100 µM (inactive) in experiment [9]; > 100 µM (inactive) in [10]; > 100 µM (inactive) in experiment [11]; 51.1 µM (inactive) in [12]; > 100 µM (inactive) in experiment [20]; 16.8 µM (inactive) in experiment [13]. Besides, the GI50 in experiment [14] is > 100 µM (inactive); in experiment [15], > 100 µM (inactive); in experiment [16], > 100 µM (inactive); in [18], > 100 µM (inactive); in experiment [19], 28.3 µM (inactive).

Consider `CSC1NC(c2ccccc2)=C(C#N)C(=O)N1C1OCC(OC(C)=O)C(OC(C)=O)C1OC(C)=O` (stereo not given), for which the GI50 in experiment [1] was > 100 µM (inactive); in experiment [3] it was 86.3 µM (inactive); in [4], > 100 µM (inactive); in experiment [5] it was > 100 µM (inactive); in experiment [6], > 100 µM (inactive); in experiment [7], > 100 µM (inactive). Moreover, the GI50 in experiment [8], in experiment [9], in [10], in experiment [11], in [12] and in experiment [20] was > 100 µM (inactive) each time. In addition, the GI50 in experiment [13], in [15], in experiment [16], in experiment [17], in experiment [18] and in experiment [19] was > 100 µM (inactive) each time.

In the case of `CCOC(=O)c1csc(NC(=O)CCCC#N)n1`, the GI50 in [1], in experiment [2], in experiment [3], in [4], in [5] and in [6] was > 100 µM (inactive) in each case. The GI50 in [7], in [9], in experiment [10], in experiment [11], in experiment [20] and in experiment [13] was > 100 µM (inactive) each time. The GI50 in experiment [14], in experiment [15], in experiment [17], in experiment [18] and in experiment [19] was > 100 µM (inactive) in each case.

Consider `Cc1ccc([N+](=O)[O-])cc1/N=N/C(=O)NNc1cc([N+](=O)[O-])ccc1C`, for which the GI50 was 33.1 µM (inactive) in experiment [1]; 48.2 µM (inactive) in experiment [2]; 70.8 µM (inactive) in experiment [3]; 21.9 µM (inactive) in experiment [4]; 23.4 µM (inactive) in [5]; > 10 µM (inactive) in [7]. Further, the GI50 was 15.8 µM (inactive) in [8]; 18.1 µM (inactive) in experiment [9]; 51.3 µM (inactive) in [10]; 18.1 µM (inactive) in experiment [11]; 26.8 µM (inactive) in experiment [13]; 24 µM (inactive) in experiment [14]. Also, the GI50 was 11.1 µM (inactive) in [15], > 10 µM (inactive) in experiment [16], 21.3 µM (inactive) in experiment [17] and 14.7 µM (inactive) in [19].

On to `COC(=O)c1cccc(C(=O)OC)c1`, for which the GI50 in experiment [1], in [2], in experiment [3], in [4], in [5] and in experiment [6] was > 100 µM (inactive) in each case. In addition, the GI50 in experiment [7], in [8], in experiment [10], in experiment [11], in [12] and in experiment [13] was > 100 µM (inactive) throughout. For the same molecule, the GI50 in [14], in [15], in experiment [16], in [17] and in experiment [18] was > 100 µM (inactive) throughout.

As for `CO/C(=N/N1CC1C(F)(F)F)c1ccncc1` (stereo not given), the GI50 in experiment [1], in experiment [2], in experiment [3], in experiment [4], in experiment [5] and in experiment [7] was > 100 µM (inactive) each time. The GI50 in experiment [8] was > 100 µM (inactive); in [9], > 100 µM (inactive); in experiment [10], > 100 µM (inactive); in experiment [11], 45.1 µM (inactive); in experiment [13] it was > 100 µM (inactive); in experiment [14] it was > 100 µM (inactive). In addition, the GI50 in experiment [15] is 54.7 µM (inactive); in experiment [16], > 100 µM (inactive); in [17] it was > 100 µM (inactive); in [19], > 100 µM (inactive).
